Key:
[1] = biological target: T1, Tyrosine-protein kinase TXK (Homo sapiens) (UniProt P42681); experiment: Inhibition of human recombinant TXK at 40 nM in presence of ATP by radiometric assay relative to control
T1 sequence (whole entry): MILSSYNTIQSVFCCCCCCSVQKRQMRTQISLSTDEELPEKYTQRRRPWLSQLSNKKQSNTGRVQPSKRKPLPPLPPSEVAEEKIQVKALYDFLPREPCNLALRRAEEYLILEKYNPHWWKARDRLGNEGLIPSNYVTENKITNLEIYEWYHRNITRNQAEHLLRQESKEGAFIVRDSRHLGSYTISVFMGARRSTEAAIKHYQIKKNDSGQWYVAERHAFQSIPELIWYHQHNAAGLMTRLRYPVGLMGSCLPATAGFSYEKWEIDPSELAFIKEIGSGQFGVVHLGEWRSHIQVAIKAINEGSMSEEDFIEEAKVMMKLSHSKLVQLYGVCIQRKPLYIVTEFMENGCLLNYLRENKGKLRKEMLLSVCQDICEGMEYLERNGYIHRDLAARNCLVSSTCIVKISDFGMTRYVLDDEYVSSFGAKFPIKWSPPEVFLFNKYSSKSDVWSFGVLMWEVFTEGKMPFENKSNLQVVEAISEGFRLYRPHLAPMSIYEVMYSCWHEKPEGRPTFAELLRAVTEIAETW

[2] = biological target: T2, Eukaryotic translation initiation factor 2-alpha kinase 3 (Homo sapiens) (UniProt Q9NZJ5); experiment: Inhibition of human recombinant PEK at 15 nM in presence of ATP by radiometric assay relative to control
T2 sequence (whole entry): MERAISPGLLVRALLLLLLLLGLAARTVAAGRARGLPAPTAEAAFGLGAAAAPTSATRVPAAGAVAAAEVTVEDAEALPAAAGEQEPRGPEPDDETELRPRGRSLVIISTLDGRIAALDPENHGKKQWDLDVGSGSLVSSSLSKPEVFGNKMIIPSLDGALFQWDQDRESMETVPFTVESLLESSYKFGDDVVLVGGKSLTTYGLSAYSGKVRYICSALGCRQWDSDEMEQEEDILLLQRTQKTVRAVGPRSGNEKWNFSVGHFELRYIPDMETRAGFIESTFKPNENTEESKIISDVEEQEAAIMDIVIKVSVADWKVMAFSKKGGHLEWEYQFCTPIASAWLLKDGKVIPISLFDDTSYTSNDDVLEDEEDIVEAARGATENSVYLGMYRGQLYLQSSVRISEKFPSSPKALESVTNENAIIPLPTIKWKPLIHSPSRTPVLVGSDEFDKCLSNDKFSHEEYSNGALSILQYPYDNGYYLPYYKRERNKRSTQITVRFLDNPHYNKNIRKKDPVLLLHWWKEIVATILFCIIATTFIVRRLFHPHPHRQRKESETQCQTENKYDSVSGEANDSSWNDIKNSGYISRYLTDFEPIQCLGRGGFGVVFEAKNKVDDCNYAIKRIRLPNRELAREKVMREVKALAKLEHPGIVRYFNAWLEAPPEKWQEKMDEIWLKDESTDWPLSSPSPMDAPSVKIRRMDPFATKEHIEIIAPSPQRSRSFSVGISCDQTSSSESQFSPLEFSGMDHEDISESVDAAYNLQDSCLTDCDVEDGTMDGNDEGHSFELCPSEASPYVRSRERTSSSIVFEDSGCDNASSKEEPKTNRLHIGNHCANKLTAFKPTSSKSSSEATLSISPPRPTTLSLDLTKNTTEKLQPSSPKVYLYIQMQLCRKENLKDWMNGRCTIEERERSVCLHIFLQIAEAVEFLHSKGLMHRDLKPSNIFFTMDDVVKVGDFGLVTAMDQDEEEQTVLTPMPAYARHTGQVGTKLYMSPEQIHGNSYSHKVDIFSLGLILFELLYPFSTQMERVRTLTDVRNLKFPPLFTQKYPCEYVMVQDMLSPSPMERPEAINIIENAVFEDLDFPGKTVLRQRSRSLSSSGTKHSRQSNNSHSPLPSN

[3] = species: Homo sapiens; experiment: Inhibition of human recombinant CK1d at 15 nM related to control ULK1
[4] = biological target: T3, Serine/threonine-protein kinase TAO2 (Homo sapiens) (UniProt Q9UL54); experiment: Inhibition of human recombinant TAO2 at 15 nM related to control ULK1
T3 sequence (whole entry): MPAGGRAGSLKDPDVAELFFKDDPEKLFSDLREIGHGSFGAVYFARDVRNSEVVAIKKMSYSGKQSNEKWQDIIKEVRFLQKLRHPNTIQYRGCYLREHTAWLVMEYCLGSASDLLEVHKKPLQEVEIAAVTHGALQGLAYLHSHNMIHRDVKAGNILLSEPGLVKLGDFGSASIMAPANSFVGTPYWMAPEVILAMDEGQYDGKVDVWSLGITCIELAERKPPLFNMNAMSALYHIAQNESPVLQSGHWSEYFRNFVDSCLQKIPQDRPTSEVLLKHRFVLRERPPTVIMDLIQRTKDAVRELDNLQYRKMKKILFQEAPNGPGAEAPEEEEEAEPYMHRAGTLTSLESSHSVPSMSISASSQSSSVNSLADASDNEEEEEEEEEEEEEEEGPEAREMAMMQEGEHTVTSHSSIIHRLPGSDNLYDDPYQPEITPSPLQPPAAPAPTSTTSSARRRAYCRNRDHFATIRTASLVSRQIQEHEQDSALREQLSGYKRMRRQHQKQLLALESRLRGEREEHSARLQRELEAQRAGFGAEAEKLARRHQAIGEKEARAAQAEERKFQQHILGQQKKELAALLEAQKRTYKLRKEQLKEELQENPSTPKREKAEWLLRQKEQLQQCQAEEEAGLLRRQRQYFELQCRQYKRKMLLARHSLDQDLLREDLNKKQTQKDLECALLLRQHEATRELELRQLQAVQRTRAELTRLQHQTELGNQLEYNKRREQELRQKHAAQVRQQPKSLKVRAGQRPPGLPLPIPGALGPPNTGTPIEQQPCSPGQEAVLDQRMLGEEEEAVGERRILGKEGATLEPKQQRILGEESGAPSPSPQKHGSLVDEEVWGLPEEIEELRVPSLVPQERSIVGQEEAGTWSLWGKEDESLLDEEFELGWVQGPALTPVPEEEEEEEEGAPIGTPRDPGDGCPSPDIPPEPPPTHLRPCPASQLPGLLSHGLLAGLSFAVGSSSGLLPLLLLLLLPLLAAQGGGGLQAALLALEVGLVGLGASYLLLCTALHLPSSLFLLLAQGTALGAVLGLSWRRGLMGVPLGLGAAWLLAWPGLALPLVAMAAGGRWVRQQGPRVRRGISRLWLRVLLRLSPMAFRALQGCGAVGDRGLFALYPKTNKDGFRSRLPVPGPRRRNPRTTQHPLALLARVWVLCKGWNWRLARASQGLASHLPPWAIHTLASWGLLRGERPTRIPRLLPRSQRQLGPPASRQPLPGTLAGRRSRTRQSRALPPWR

Compound | inhibition [1] | inhibition [2] | fold change (FC) [3] | fold change (FC) [4]
O=C(N[C@@H](C1CC1)C(F)(F)F)c1cc(-c2cnn3cc(-c4ccc(F)cc4)cnc23)cs1 | 13% |  |  | 
CC(C)[C@H](NC(=O)c1cc(-c2cnn3cc(-c4ccc(OCCN5CCCCC5)cc4)cnc23)cs1)C(F)(F)F |  | 0% | 0.03 | 0

— ChEMBL document CHEMBL5653631, “A Potent and Selective ULK1 Inhibitor Suppresses Autophagy and Sensitizes Cancer Cells to Nutrient Stress” (iScience, 2018)
